Source: patent US10800790B2, “Sesquiterpenoid STAT3 inhibitors” (University of Hawaii, priority 2013, dated 2020)

How the values were obtained:
[1] = system: U251MG glioblastoma cells; assay: CyQuant cell viability/proliferation assay, U251MG; assay type: cell-based, human; parameters: key to Activity against U251: +, active; −, no activity; +/−, poorly active; details: for Inhibitory effect on viability of U251MG (tumor) cells, in words: 5 micromolar; for Inhibitory effect on viability of U251MG (tumor) cells, in words / U251MG % inhibition / inhibition at 5 µM: Table 3 numbering (isolates 1-16); for U251MG % inhibition / inhibition at 5 µM: at 5 μM, 72 h; for Activity against U251: Table 1 grade, Table 1/FIG. 2 compound numbering; for Inhibitory potency compared with 22 (CyQuant): 72-h treatment, FIG. 10, synthetic derivatives of 22; for inhibition at 5 µM: Homo sapiens, U-251
Description: (§1) The cell viability assay was performed as previously reported (Zhang X, et al. (2010)). Briefly, a 10 millimolar concentration stock solution in dimethylsulfoxide (DMSO) of the tested molecule was first prepared. Next, the stock solution was diluted down to various working solutions in water. Thus, a formulation of the tested compound in a DMSO/water mixture was used to test for cell viability. (A novel small-molecule disrupts STAT3 SH2 domainphosphotyrosine interactions and STAT3-dependent tumor processes, Biochem Pharmacol 79:1398-1409; Zhao W, Jaganathan S, & Turkson J (2010), A cell-permeable STAT3 SH2 domain mimetic inhibits STAT3 activation and induces antitumor cell effects in vitro. J Biol Chem. 285:35855-35865). Cells (U251MG, MDA-MB-231 or NIH3T3) were obtained from ATCC (Manassas, Va.) and were cultured in 96-well plates at 2,000 cells per well for 24 h and were treated with compounds (5 micromolar concentration) for 72 h. Cell viabilty was determined using CyQuant assay, according to the manufacturer's (Invitrogen, CA, USA) instructions. Relative viability of the treated cells was normalized to the DMSO-treated control cells.

[2] = system: MDA-MB-231 breast cancer cells; assay: CyQuant cell viability/proliferation assay, MDA-MB-231; assay type: cell-based, human; details: for MDA-MB-231 % inhibition / inhibition at 5 µM: at 5 μM, 72 h, Table 3 numbering (isolates 1-16); for inhibition at 5 µM: Homo sapiens, MDA-MB-231; for Inhibition of breast cancer MDA-MB-231, in words: 72-h treatment, FIG. 10
Description: as §1

[3] = system: normal NIH3T3 mouse fibroblasts; assay: CyQuant cell viability/proliferation assay, NIH3T3; assay type: cell-based; details: Table 3 numbering (isolates 1-16); for NIH-3T3 % inhibition / inhibition at 5 µM: at 5 μM, 72 h; for inhibition at 5 µM: Mus musculus, NIH3T3, read-out: NIH-3T3 % inhibition
Description: as §1

[4] = system: pY705STAT3 in U251MG or MDA-MB-231 cells; assay: Immunoblotting of pY705STAT3 in treated tumor cells; details: 5 micromolar, U251MG or MDA-MB-231; for Effect on pY705STAT3 / STAT3 activity (immunoblot), in words: 0-24 h, Table 1/FIG. 2 numbering
Description: Positions of STATs:DNA complexes or proteins in gel are labeled; control lanes (0) represent nuclear extracts or whole-cell lysates prepared from 0.05% DMSO-treated cells. Data are representative of at least three to four independent determinations.
Lysates of equal total protein prepared in the lysis buffer (50 mM Hepes, pH 7.5, 150 mM NaCl, 2 mM EDTA, 1% Triton X-100, 0.1% SDS), were subjected to IP or Western blotting analysis. Antibodies against STAT3, pY705STAT3, Src, pY416Src, Erk1/2, and pT202/Y204Erk1/2 and GAPDH (Cell Signaling Technology, Danvers, Mass.), and anti-β-actin, and HSP105 (Santa Cruz Biotechnology, Dallas, Tex.) are from the designated sources.
Whole-cell lysates were prepared in boiling SDS sample loading buffer to extract total proteins, as reported previously. […] Nitrocellulose membranes were probed with primary antibodies, and the detection of horseradish peroxidase-conjugated secondary antibodies by enhanced chemiluminescence (Amersham) was performed. Antibodies used were monoclonal anti-pYSTAT3 and anti-STAT3 antibodies (Cell Signaling Technology, Danvers, Mass.).

Compound: 8α-(2′Z-tigloyloxy)hirsutinolide-13-O-acetate [Compound 2]
- Inhibitory effect on viability of U251MG (tumor) cells, in words [1]: weak inhibitory effect
- U251MG % inhibition [1]: 48.6%
- MDA-MB-231 % inhibition [2]: ne (ne, no effect inhibition)
- NIH-3T3 % inhibition [3]: 8.0%
- Inhibition of pY705STAT3 (immunoblot), in words ([4]; Table 3 numbering (isolates 1-16)): inhibited STAT3 phosphorylation

Compound: CC(=CCO)C(=O)OC1CC(C)C2(O)CCC(C)(C=C3OC(=O)C(CO)=C31)O2 (stereo not shown) [Compound 21]
- Activity against U251 [1]: −

Compound: CCCC(CCC)C(=O)OCC1=C2/C(=C\C3(C)CCC(O)(O3)[C@H](C)C[C@@H]2O)OC1=O (stereo partly shown) [zmm-1-80]
- Inhibitory potency compared with 22 (CyQuant) [1]: retained the inhibitory potency as 22

Compound: CC1(C)C[C@H](O)C[C@@]2(C)OC(=O)C=C12 [Compound 12, loliolide]
- inhibition at 5 µM [1]: < 6%
- inhibition at 5 µM [2]: < 6%
- inhibition at 5 µM [3]: < 6%

Compound: CC=C(C)C(=O)OCC1=C2C(=CC3(C)CCC(O)(O3)C(C)CC2O)OC1=O (stereo not drawn) [Compound 4, 8α-hydroxy-13-O-tigloyl-hirsutinolide]
- Inhibitory effect on viability of U251MG (tumor) cells, in words [1]: high inhibitory effect
- U251MG % inhibition [1]: 80.9%
- MDA-MB-231 % inhibition [2]: 26.2%
- Inhibitory effect on NIH3T3 fibroblasts, in words ([3]; 5 micromolar): lower inhibitory effect
- NIH-3T3 % inhibition [3]: 32.1%

Compound: C[C@@H]1C[C@H](O)C2=C(COC(=O)/C=C/c3ccc(C(F)(F)F)cc3)C(=O)O/C2=C/C2(C)CCC1(O)O2 (stereo partly shown) [zmm-1-79]
- Inhibitory potency compared with 22 (CyQuant) [1]: retained the inhibitory potency as 22

Compound: C[C@@H]1C[C@H](O)C2=C(COC(=O)/C=C/c3ccc(F)cc3)C(=O)O/C2=C/C2(C)CCC1(O)O2 (stereo partly shown) [zmm-1-78]
- Inhibition of breast cancer MDA-MB-231, in words [2]: also inhibited breast cancer, MDA-MB-231

Compound: C/C=C(\C)C(=O)OCC1=C2/C(=C\C3(C)CCC(OC)(O3)[C@H](C)C[C@@H]2OC(=O)/C(C)=C/C)OC1=O (stereo partly drawn) [zmm-1-37, (4S,6R,E)-7-methoxy-6,10-dimethyl-3-((((E)-2-methylbut-2-enoyl)oxy)methyl)-2-oxo-2,4,5,6,7,8,9,10-octahydro-7,10-epoxycyclodeca[b]furan-4-yl(E)-2-methylbut-2-enoate]
- Inhibitory potency compared with 22 (CyQuant) [1]: retained the inhibitory potency as 22
- Inhibition of breast cancer MDA-MB-231, in words [2]: also inhibited breast cancer, MDA-MB-231
- Effect on pY705STAT3 / STAT3 activity (immunoblot), in words [4]: inhibited pY705STAT3

Compound: C/C=C(\C)C(=O)OCC1=C2/C(=C\C3(C)CCC(O)(O3)[C@H](C)C[C@@H]2OC(=O)/C(C)=C/C)OC1=O (stereo partly drawn) [zmm-1-36, (4S,6R,E)-7-hydroxy-6,10-dimethyl-3-((((E)-2-methylbut-2-enoyl)oxy)methyl)-2-oxo-2,4,5,6,7,8,9,10-octahydro-7,10-epoxycyclodeca[b]furan-4-yl(E)-2-methylbut-2-enoate]
- Inhibitory potency compared with 22 (CyQuant) [1]: retained the inhibitory potency as 22
- Cell-type selectivity of growth inhibition, in words ([1]; U251MG versus other cells incl. NIH3T3, Table 1/FIG. 2 numbering): lost cell-type specificity
- Effect on pY705STAT3 / STAT3 activity (immunoblot), in words [4]: inhibited pY705STAT3

Compound: C[C@@H]1C[C@H](O)C2=C(COC(=O)C=Cc3ccccc3)C(=O)O/C2=C/C2(C)CCC1(O)O2 (stereo partly drawn) [zmm-1-19, ((4S,6R,E)-4,7-dihydroxy-6,10-dimethyl-2-oxo-2,4,5,6,7,8,9,10-octahydro-7,10-epoxycyclodeca[b]furan-3-yl)methyl cinnamate]
- Inhibitory potency compared with 22 (CyQuant) [1]: retained the inhibitory potency as 22
- Effect on pY705STAT3 / STAT3 activity (immunoblot), in words [4]: inhibited pY705STAT3

Compound: C[C@@H]1C[C@H](O)C2=C(COC(=O)CCc3ccccc3)C(=O)O/C2=C/C2(C)CCC1(O)O2 (stereo partly drawn) [zmm-1-82, ((4S,6R,E)-4,7-dihydroxy-6,10-dimethyl-2-oxo-2,4,5,6,7,8,9,10-octahydro-7,10-epoxycyclodeca[b]furan-3-yl)methyl 3-phenylpropanoate]
- Inhibitory potency compared with 22 (CyQuant) [1]: retained the inhibitory potency as 22

Compound: C/C=C(\C)C(=O)O[C@H]1C[C@@H](C)C2(OC)CCC(C)(/C=C3/OC(=O)C(COC(=O)C=Cc4ccccc4)=C31)O2 (stereo partly drawn) [zmm-1-72, (4S,6R,E)-3-((cinnamoyloxy)methyl)-7-methoxy-6,10-dimethyl-2-oxo-2,4,5,6,7,8,9,10-octahydro-7,10-epoxycyclodeca[b]furan-4-yl(E)-2-methylbut-2-enoate]
- Inhibitory potency compared with 22 (CyQuant) [1]: retained the inhibitory potency as 22

Compound: CCC(C)C(=O)OCC1=C2/C(=C\C3(C)CCC(O)(O3)[C@H](C)C[C@@H]2O)OC1=O (stereo partly drawn) [zmm-1-18, ((4S,6R,E)-4,7-dihydroxy-6,10-dimethyl-2-oxo-2,4,5,6,7,8,9,10-octahydro-7,10-epoxycyclodeca[b]furan-3-yl)methyl 2-methylbutanoate]
- Effect on pY705STAT3 / STAT3 activity (immunoblot), in words [4]: showed little effects on pY705STAT3

Compound: CC(C)=CCCC(C)CC(=O)OCC1=C2/C(=C\C3(C)CCC(O)(O3)[C@H](C)C[C@@H]2O)OC1=O (stereo partly drawn) [zmm-1-22, ((4S,6R,E)-4,7-dihydroxy-6,10-dimethyl-2-oxo-2,4,5,6,7,8,9,10-octahydro-7,10-epoxycyclodeca[b]furan-3-yl)methyl 3,7-dimethyloct-6-enoate]
- Inhibitory potency compared with 22 (CyQuant) [1]: retained the inhibitory potency as 22
- Effect on pY705STAT3 / STAT3 activity (immunoblot), in words [4]: inhibited pY705STAT3

Compound: C=C(C)C(=O)OC1CC(C)C2(O)CCC(C)(C=C3OC(=O)C(CO)=C31)O2 (stereo not drawn) [Compound 5, 8α-(2-methylacryloyloxy)-hirsutinolide]
- U251MG % inhibition [1]: ne (ne, no effect inhibition)
- MDA-MB-231 % inhibition [2]: ne (ne, no effect inhibition)
- NIH-3T3 % inhibition [3]: ne (ne, no effect inhibition)

Compound: CC=C(C)C(=O)OC1CC(C)C2(OC)CCC(C)(C=C3OC(=O)C(CO)=C31)O2 (stereo not shown) [Compound 17]
- Activity against U251 [1]: −

Compound: CC(C)=CCCC(C)=CC(=O)OCC1=C2/C(=C\C3(C)CCC(O)(O3)[C@H](C)C[C@@H]2O)OC1=O (stereo partly drawn) [zmm-1-20, ((4S,6R,E)-4,7-dihydroxy-6,10-dimethyl-2-oxo-2,4,5,6,7,8,9,10-octahydro-7,10-epoxycyclodeca[b]furan-3-yl)methyl 3,7-dimethylocta-2,6-dienoate]
- Inhibitory potency compared with 22 (CyQuant) [1]: retained the inhibitory potency as 22
- Effect on pY705STAT3 / STAT3 activity (immunoblot), in words [4]: inhibited pY705STAT3

Compound: 8α-(4-hydroxytigloyloxy)-hirsutinolide [Compound 3]
- U251MG % inhibition [1]: ne (ne, no effect inhibition)
- MDA-MB-231 % inhibition [2]: ne (ne, no effect inhibition)
- NIH-3T3 % inhibition [3]: ne (ne, no effect inhibition)

Compound: CC(C)=CC(=O)OCC1=C2/C(=C\C3(C)CCC(O)(O3)[C@H](C)C[C@@H]2O)OC1=O (stereo partly drawn) [zmm-1-21, ((4S,6R,E)-4,7-dihydroxy-6,10-dimethyl-2-oxo-2,4,5,6,7,8,9,10-octahydro-7,10-epoxycyclodeca[b]furan-3-yl)methyl 3-methyl but-2-enoate]
- Effect on pY705STAT3 / STAT3 activity (immunoblot), in words [4]: showed little effects on pY705STAT3

Compound: (9Z,12S,13S)-dihydroxy-9-octadecanoic acid [Compound 16]
- U251MG % inhibition [1]: ne (ne, no effect inhibition)
- MDA-MB-231 % inhibition [2]: ne (ne, no effect inhibition)
- NIH-3T3 % inhibition [3]: ne (ne, no effect inhibition)

Compound: CC=C(C)C(=O)OC1CC(C)C2(O)CCC(C)(C=C3OC(=O)C(CO)=C31)O2 (stereo not drawn) [Compound 1, 8α-(2′Z-tigloyloxy)hirsutinolide]
- U251MG % inhibition [1]: ne (ne, no effect inhibition)
- MDA-MB-231 % inhibition [2]: ne (ne, no effect inhibition)
- NIH-3T3 % inhibition [3]: ne (ne, no effect inhibition)

Compound: O=c1cc(-c2ccc(O)cc2)oc2cc(O)cc(O)c12 [Compound 15, apigenine]
- inhibition at 5 µM [1]: < 6%
- inhibition at 5 µM [2]: < 6%
- inhibition at 5 µM [3]: < 6%
